In data set [1] the test system is rat cortical synaptosomes. Briefly: glutamate-induced 45Ca2+ uptake into rat cortical synaptosomes (P2-fraction). The format is cell-based. As to conditions: for activity at 100 µM / IC50: Rattus norvegicus, glutamate-stimulated; for activity at 100 µM / ^45Ca^2+ uptake (% vs. control): 5 min; for activity at 100 µM: compound at 100 µM, synaptosomes of newborn Wistar rats, 5 minutes at 37°C, control = 100%, read-out: ^45Ca^2+ uptake (% vs. control); for ^45Ca^2+ uptake (% vs. control): 100 µM; for IC50: concentration at which 50% inhibition of calcium uptake takes place, four different concentrations. The source says: Neuroprotective action of the synthesized compounds was studied in P2-fraction of the rat brain cortex synaptosomes as an in vitro convenient model for evaluation of the ability of various compounds to influence calcium uptake into the nerve endings. In the present invention, the applicant used the method of detecting the uptake of ^45Ca^2+ into rat cortical synaptosomes when stimulated with glutamic acid.
Synaptosomes were obtained from the cerebral cortex of newborn Wistar rats (9-10 days) according to Hayosh's standard procedure [Hajos F.// Brain Res., 1975, Vol.93, No 3, pp. 485-489]. The brain was homogenized (glass-teflon) in 10 volumes of 0.32 M chilled sucrose (900 rpm). The homogenate was centrifuged for 10 minutes at 1500 g. The resulting supernatant was centrifuged for 20 minutes at 10000 g. To accumulate the radioactive label, the P2-synaptosomal fraction was suspended in incubation buffer A (132 mM NaCl, 5 mM KCl, 5 mM HEPES, 10 mM glucose, pH 7.4 (protein concentration of 1.5-2 mg/ml)). The final concentration of Ca^2+ was 1.25 mM (1.4 µCi/ml). […] glutamate was used to stimulate the uptake of ^45Ca^2+ in synaptosomes. After 5 minutes of the incubation with glutamate at 37°C, the uptake of ^45Ca^2+ was stopped by filtration through GF/B filters (Whatman, England), washing three times with cold buffer B (145 mM KCl, 10 mM Tris, 5.4 mM Trilon B, pH 7.4) [L.N. Petrova, S.O. Bachurin // Bull. Exp. Biol. Med., 2006., Vol. 142, No 7, pp.51-54]. The samples were analyzed by liquid scintillation beta analyzer (Russia). All tests were performed in three parallel replications in 2-3 independent experiments. The amount of ^45Ca^2+ uptaced into synaptosomes was determined by the difference in the content of the label in the glutamate-induced uptake into synaptosomes and uptake into synaptosomes without agonist, and expressed as percentages of the control (control = 100%).
Specific uptake of ^45Ca^2+ was calculated according to the following formula: K(43/21) = [(Ca4-Ca3)/(Ca2-Ca1)]⋅100%, [formula] wherein Ca1 is uptake of ^45Ca^2+ in the control (without glutamate and a test compound), Ca2 is uptake of ^45Ca^2+ in the presence of glutamate, Ca3 is uptake of ^45Ca^2+ in the presence of a test compound (without glutamate), Ca4 is uptake of ^45Ca^2+ in the presence of glutamate and a test compound. Statistical analysis was performed according to Student's test.
Testing of the compounds was performed at a concentration of 100 µM. Compounds 1-9 which have an inhibitory effect on the ^45Ca^2+ uptake into rat cortical synaptosomes were examined in detail at four different concentrations to determine the IC50 value (concentration of a compound at which 50% inhibition of calcium uptake takes place).

Data set [2] in a line: acute toxicity (LD50) according to the standard method. The settings on record: in vivo.

In general, IC50 refers to the midpoint of a concentration-inhibition curve. For orientation: LD50 means the dose expected to kill half of the subjects tested. A low value points to greater toxicity.

As for `CN(C)c1ccc(P(=O)(c2ccc(N(C)C)cc2)C(CC(=O)O)C(=O)O)cc1` (centres unmarked) [Compound 11, 2-[bis-(4-Dimethylaminophenyl)-phosphinoyl]succinic acid, reference compound], the activity at 100 µM in data set [1] was 117 ± 3.9%.

On to `CCCCN(CCCC)C(=O)CC(CP(=O)(c1ccc(OC)cc1)c1ccc(OC)cc1)C(=O)N(CCCC)CCCC` (centres unmarked) [Compound 8, N^1,N^1,N^4,N^4-tetrabutyldiamide of 2-[bis(4-methoxyphenyl)-phosphinoylmethyl]succinic acid], for which, in data set [1], the “^45Ca^2+ uptake (% vs. control)” value is recorded as 0% and the IC50 worked out at 15.5 µM. Further, the LD50 in data set [2] was over 100 mg/kg.

For the molecule `CCCCN(CCCC)C(=O)CP(=O)(c1ccccc1)c1ccccc1` [Compound 16, N,N-Dibutylamide of 2-(diphenylphosphinoyl)acetic acid, reference compound], in data set [1], the activity at 100 µM was 96.2 ± 2.9%.

Take `CCCCN(CCCC)C(=O)CC(CP(=O)(c1cc(C)ccc1C)c1cc(C)ccc1C)C(=O)N(CCCC)CCCC` (centres unmarked) [Compound 9, N^1,N^1,N^4,N^4-tetrabutyldiamide of 2-[bis(2,5-dimethylphenyl)-phosphinoylmethyl]succinic acid]: in data set [1], the activity at 100 µM is 4.9 ± 4.9% and the IC50 amounted to 5.1 µM. Further, the LD50 in data set [2] was over 100 mg/kg.

In the case of `CCP(=O)(CC)C(CC(=O)O)C(=O)O` (centres unmarked) [Compound 13, 2-(Diethylphosphinoyl)succinic acid, reference compound], in data set [1], the activity at 100 µM worked out at 120 ± 17.3%.

On to `CCN(CC)CC(C(=O)N(CC)CC)P(=O)(c1ccccc1)c1ccccc1` (centres unmarked) [Compound 18, N,N-Diethylamide of 2-(diphenylphosphinoyl)-3-(diethylamino)propionic acid, reference compound], for which the activity at 100 µM in data set [1] was 97.4%.

Turning to `CCCCN(CCCC)C(=O)CC(C(=O)N(CCCC)CCCC)P(=O)(c1ccc(Cl)cc1)c1ccc(Cl)cc1` (centres unmarked) [Compound 5, N^1,N^1,N^4,N^4-tetrabutyldiamide of 2-[bis(4-chlorophenyl)-phosphinoyl]succinic acid], in data set [1], the activity at 100 µM is 11.7 ± 7% and the concentration for half-maximal inhibition (IC50) turned out to be 4.8 µM. The same molecule returned an LD50 in data set [2] of over 100 mg/kg.

As to `CCCCN(CCCC)C(=O)CC(C(=O)N(CCCC)CCCC)P(=O)(c1cc(C)ccc1C)c1cc(C)ccc1C` (centres unmarked) [Compound 3, N^1,N^1,N^4,N^4-tetrabutyldiamide of 2-[bis(2,5-dimethylphenyl)-phosphinoyl]succinic acid], in data set [1], the activity at 100 µM is 7.7 ± 6.4% and the IC50 came to 18.6 µM. In addition, the LD50 in data set [2] is over 100 mg/kg.

As for `Cc1ccc(C)c(P(=O)(c2cc(C)ccc2C)C(CC(=O)O)C(=O)O)c1` (centres unmarked) [Compound 12, 2-[bis-(2,5-Dimethylphenyl)-phosphinoyl]succinic acid, reference compound], the activity at 100 µM in data set [1] was determined as 97.9 ± 11.4%.

With `CCCCN(CCCC)C(=O)CC(C(=O)N(CCCC)CCCC)P(=O)(c1ccccc1C)c1ccccc1C` (centres unmarked) [Compound 2], in data set [1], the “^45Ca^2+ uptake (% vs. control)” value is 6.6±3.3% and the IC50 is 9.3 µM. In addition, the LD50 in data set [2] is over 100 mg/kg.

For `CCCCN(CCCC)C(=O)CC(C(=O)N(CCCC)CCCC)P(=O)(CCCC)CCCC` (centres unmarked) [Compound 7, N^1,N^1,N^4,N^4-tetrabutyldiamide of 2-(di-n-butylphosphinoyl)succinic acid], in data set [1], the activity at 100 µM was 0% and the IC50 worked out at 44.7 µM. In data set [2], the LD50 is over 100 mg/kg.

For the molecule `CCCCN(CCCC)C(=O)CC(C(=O)N(CCCC)CCCC)P(=O)(c1ccccc1)c1ccccc1` (centres unmarked) [Compound 1, N^1,N^1,N^4,N^4-tetrabutyldiamide of 2-(diphenylphosphinoyl)succinic acid], in data set [1], the “^45Ca^2+ uptake (% vs. control)” value is given as 0% and the IC50 was found to be 14.1 µM. In data set [2], this molecule gave an LD50 of over 100 mg/kg.

On to `CCCCN(CCCC)C(=O)CC(C(=O)N(CCCC)CCCC)P(=O)(c1ccc(N(C)C)cc1)c1ccc(N(C)C)cc1` (centres unmarked) [Compound 4, N^1,N^1,N^4,N^4-tetrabutyldiamide of 2-[bis(4-dimethylaminophenyl)-phosphinoyl]succinic acid], for which, in data set [1], the activity at 100 µM was 0% and the IC50 worked out at 7.9 µM. In addition, the LD50 in data set [2] was over 100 mg/kg.

On to `CCN(CC)C(=O)CP(=O)(c1ccccc1)c1ccccc1` [Compound 17, N,N-Diethylamide of 2-(diphenylphosphinoyl)acetic acid, reference compound], for which the activity at 100 µM in data set [1] amounted to 95.4%.

Consider `CCN(CC)C(=O)CC(CP(=O)(c1ccccc1)c1ccccc1)C(=O)N(CC)CC` (centres unmarked) [Compound 10, N^1,N^1,N^4,N^4-tetraethyldiamide of 2-(diphenylphosphinoylmetyl)succinic acid], for which the activity at 100 µM in data set [1] stood at 63.8 ± 12%. The same molecule came in with an LD50 in data set [2] of over 100 mg/kg.

For `CCCCN(CCCC)C(=O)CC(C(=O)N(CCCC)CCCC)P(=O)(c1ccc(OC)cc1)c1ccc(OC)cc1` (centres unmarked) [Compound 6, N^1,N^1,N^4,N^4-tetrabutyldiamide of 2-[bis(4-methoxyphenyl)-phosphinoyl]succinic acid], in data set [1], the activity at 100 µM turned out to be 7.2 ± 1.3% and the IC50 was found to be 17 µM. Moreover, in data set [2], the LD50 was over 100 mg/kg.

The values are drawn from patent publication EP2660245A1, “PHYSIOLOGICALLY ACTIVE BIS-DIALKYLAMIDES OF PHOSPHORYL-SUBSTITUTED 1,4-DICARBOXYLIC ACIDS AND METHOD FOR PRODUCING SAME” (Federalnoe Gosudarstvennoe Bydzhetnoe Uchrezhdenie Nauki …, priority 2010, dated 2012).
